Measurements from patent US11299487B2, “Compounds and compositions as modulators of TLR signaling” (Neuropore Therapies, Inc., priority 2019, dated 2022).

Columns and labels:
[1] = target: T1, human TLR2 (Homo sapiens, UniProt O60603); assay: HEK-Blue hTLR2 antagonism assay (SEAP reporter) with agonist Pam2CSK4 (TLR2/6 agonist); type: cell-based; details: HEK-Blue hTLR2 cells, ~3×EC50 Pam2CSK4, 18 h, SEAP OD 655 nm, 8-point dilutions
T1 construct: host or cells: HEK-Blue hTLR2 (HEK-293)
Description: (§1) Synthetic diacylated lipoprotein (Pam2CSK4, TLR2/6 agonist) and synthetic triacylated lipoprotein (Pam3CSK4, TLR1/2 agonist) were obtained from InvivoGen and were dissolved in endotoxin-free water to a concentration 1 mg/mL, vortexed until complete solubilization, and stored in aliquots at −20° C. Prior to addition to cells, an aliquot of the dissolved ligand was vortexed shortly and then was diluted in medium to 25 ng/mL Pam2CSK4 or 1000 ng/mL Pam3CSK4.
(§2) Test compounds were solubilized fresh to 10-20 mM stocks in DMSO and sonicated for 5-10 minutes in a water bath sonicator. Serial dilutions were prepared in DMSO, and then diluted in medium. The final concentration of DMSO used in the assay was 1%.
(§3) HEK-Blue hTLR2 reporter cells (InvivoGen) are HEK-293 cells stably expressing both the human TLR2 gene and a secreted embryonic alkaline phosphatase (SEAP) reporter construct downstream of NFκB promotor sites. HEK-Blue hTLR2 reporters were cultured according to manufacturer's protocol using Dulbecco's Modified Eagle Medium (DMEM; Gibco) containing 1× GlutaMax (Gibco), 10% heat-inactivated Fetal Bovine Serum (Gibco), Pen-Strep (50 U/mL penicillin, 50 μg/mL streptomycin, Gibco), 100 μg/mL Normocin (InvivoGen), and the selective antibiotic, 1×HEK-Blue Selection (InvivoGen). Quanti-Blue reagent (InvivoGen) for detection and quantification of secreted alkaline phosphatase was dissolved in 100 mL of endotoxin-free water, warmed to 37° C. for 30 minutes and then filtered using a 0.2 μm membrane.
(§4) On day 1, 50 μL of each test compound dilution in duplicates or a vehicle control was added to each well of a 96-well plate followed by addition of 150 μL of HEK-Blue hTLR2 cell suspension (1×10^5 cells/well) and incubated at 37° C./5% CO2 for 2 h. Next, 50 μL of an approximate 3×EC50 concentration of each agonist (Pam2CSK4 or Pam3CSK4) was added to the wells containing test compounds or the vehicle control. The plates were then incubated at 37° C./5% CO2 for 18 h. For each assay run, non-treated HEK-Blue hTLR2 cells were treated with serial dilutions of agonists to determine EC50 values for the respective run.
(§5) On day 2, secreted alkaline phosphatase (SEAP) activity was detected in cell culture supernatants. In brief, 20 μL was collected from each well and transferred to a 96-well plate. Next, 200 μL of Quanti-Blue detection reagent was added to each well. Plates were incubated at room temperature for 15 min. and SEAP activity was assessed by spectrophotometer OD reading at 655 nm. […] IC50 values were calculated based on 8-point dilutions for each compound.

[2] = target: T1, human TLR2; assay: HEK-Blue hTLR2 antagonism assay (SEAP reporter) with agonist Pam3CSK4 (TLR1/2 agonist); type: cell-based; details: HEK-Blue hTLR2 cells, ~3×EC50 Pam3CSK4, 18 h, SEAP OD 655 nm, 8-point dilutions
Description: as §1, §2, §3, §4, §5

T1 sequence (O60603 21-784): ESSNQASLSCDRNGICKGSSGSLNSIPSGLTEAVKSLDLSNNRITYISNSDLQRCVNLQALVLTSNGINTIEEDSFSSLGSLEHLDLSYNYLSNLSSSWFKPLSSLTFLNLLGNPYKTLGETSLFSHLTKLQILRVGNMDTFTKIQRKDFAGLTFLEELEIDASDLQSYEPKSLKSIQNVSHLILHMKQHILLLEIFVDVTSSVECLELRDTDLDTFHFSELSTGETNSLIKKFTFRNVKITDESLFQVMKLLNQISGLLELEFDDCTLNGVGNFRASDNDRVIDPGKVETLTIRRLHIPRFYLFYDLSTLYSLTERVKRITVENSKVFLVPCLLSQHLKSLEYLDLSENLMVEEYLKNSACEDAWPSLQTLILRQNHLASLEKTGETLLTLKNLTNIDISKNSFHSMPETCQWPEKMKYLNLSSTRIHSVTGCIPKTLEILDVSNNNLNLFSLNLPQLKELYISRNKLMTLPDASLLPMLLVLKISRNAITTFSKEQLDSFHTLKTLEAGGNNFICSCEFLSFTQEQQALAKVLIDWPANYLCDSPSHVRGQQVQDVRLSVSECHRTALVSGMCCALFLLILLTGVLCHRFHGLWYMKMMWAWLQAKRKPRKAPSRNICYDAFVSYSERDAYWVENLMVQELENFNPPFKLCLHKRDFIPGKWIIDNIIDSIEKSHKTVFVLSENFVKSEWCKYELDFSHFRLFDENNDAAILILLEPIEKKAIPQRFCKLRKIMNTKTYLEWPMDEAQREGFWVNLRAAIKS

IC50 ([1]; Table A) [µM] | IC50 ([2]; Table A) [µM] | IC50 ([1]; Table B) [µM] | IC50 ([2]; Table B) [µM] | Compound
1.4 | 1 |  |  | Cc1nc(-c2ccc(N3CCCC3)cc2)sc1-c1cc(F)c(O)c(C=O)c1 [Compound A98, 3-fluoro-2-hydroxy-5-(4-methyl-2-(4-(pyrrolidin-1-yl)phenyl)thiazol-5-yl)benzaldehyde]
3.3 | 2.2 |  |  | O=Cc1cc(-c2cnc(-c3ccccc3)s2)ncc1O [Compound A99, 5-hydroxy-2-(2-phenylthiazol-5-yl)isonicotinaldehyde]
1.4 | 0.6 |  |  | CC1(C)CCN(c2ccc(-c3nsc(-c4cc(F)c(O)c(C=O)c4)n3)cc2)C1 [Compound A100, 5-(3-(4-(3,3-dimethylpyrrolidin-1-yl)phenyl)-1,2,4-thiadiazol-5-yl)-3-fluoro-2-hydroxybenzaldehyde]
3.2 | 1 |  |  | O=Cc1cc(-c2cnc(-c3cccc(N4CCCC4)c3)s2)cc(F)c1O [Compound A101, 3-fluoro-2-hydroxy-5-(2-(3-(pyrrolidin-1-yl)phenyl)thiazol-5-yl)benzaldehyde]
1.9 | 1 |  |  | O=Cc1cc(-c2cnc(-c3ccc(N4CCCC4)nc3)s2)cc(F)c1O [Compound A102, 3-fluoro-2-hydroxy-5-(2-(6-(pyrrolidin-1-yl)pyridin-3-yl)thiazol-5-yl)benzaldehyde]
3.9 | 1.3 |  |  | Cc1nc(-c2cccc(N3CCCC3)c2)sc1-c1cc(F)c(O)c(C=O)c1 [Compound A103, 3-fluoro-2-hydroxy-5-(4-methyl-2-(3-(pyrrolidin-1-yl)phenyl)thiazol-5-yl)benzaldehyde]
6.8 | 3.9 |  |  | Cc1nc(-c2ccc(N3CCCC3)nc2)sc1-c1cc(F)c(O)c(C=O)c1 [Compound A104, 3-fluoro-2-hydroxy-5-(4-methyl-2-(6-(pyrrolidin-1-yl)pyridin-3-yl)thiazol-5-yl)benzaldehyde]
1.9 | 0.5 |  |  | CC1(C)CCN(c2ccc(-c3csc(-c4cc(F)c(O)c(C=O)c4)n3)cc2)C1 [Compound A105, 5-(4-(4-(3,3-dimethylpyrrolidin-1-yl)phenyl)thiazol-2-yl)-3-fluoro-2-hydroxybenzaldehyde]
0.3 | 0.2 |  |  | O=Cc1cc(-c2cnc(-c3ccc(N4CCCC4)cc3)s2)ncc1O [Compound A112, 5-hydroxy-2-(2-(4-(pyrrolidin-1-yl)phenyl)thiazol-5-yl)isonicotinaldehyde]
0.7 | 0.4 |  |  | O=Cc1cc(-c2cnc(-c3cnc(N4CCCC4)c(C(F)(F)F)c3)s2)cc(F)c1O [Compound A114, 3-fluoro-2-hydroxy-5-(2-(6-(pyrrolidin-1-yl)-5-(trifluoromethyl)pyridin-3-yl)thiazol-5-yl)benzaldehyde]
1.3 | 0.6 |  |  | O=Cc1cc(-c2cnc(-c3ccc(N4CC5(CCC5)C4)cc3)s2)cc(F)c1O [Compound A116, 5-(2-(4-(2-azaspiro[3.3]heptan-2-yl)phenyl)thiazol-5-yl)-3-fluoro-2-hydroxybenzaldehyde]
1.7 | 1.5 |  |  | O=Cc1cc(-c2csc(-c3ccc(N4CCCC4)nc3)n2)cc(F)c1O [Compound A123, 3-fluoro-2-hydroxy-5-(2-(6-(pyrrolidin-1-yl)pyridin-3-yl)thiazol-4-yl)benzaldehyde]
1.7 | 1 |  |  | O=Cc1cc(-c2csc(-c3cccc(N4CCCC4)c3)n2)cc(F)c1O [Compound A124, 3-fluoro-2-hydroxy-5-(2-(3-(pyrrolidin-1-yl)phenyl)thiazol-4-yl)benzaldehyde]
3.3 | 2 |  |  | O=Cc1cc(-c2nsc(-c3cccc(N4CCCC4)c3)n2)cc(F)c1O [Compound A125, 3-fluoro-2-hydroxy-5-(5-(3-(pyrrolidin-1-yl)phenyl)-1,2,4-thiadiazol-3-yl)benzaldehyde]
1.1 | 0.6 |  |  | O=Cc1cc(-c2csc(-c3ccc(N4CCCCC4)nc3)n2)cc(F)c1O [Compound A126, 3-fluoro-2-hydroxy-5-(2-(6-(piperidin-1-yl)pyridin-3-yl)thiazol-4-yl)benzaldehyde]
1.2 | 0.7 |  |  | O=Cc1cc(-c2cnc(-c3ccc(N4CCCCC4)nc3)s2)cc(F)c1O [Compound A127, 3-fluoro-2-hydroxy-5-(2-(6-(piperidin-1-yl)pyridin-3-yl)thiazol-5-yl)benzaldehyde]
 |  | 0.5 | 0.3 | O=Cc1cc(C#Cc2ccc(N3CCCCC3)cc2)cc(F)c1O [Compound B2, 3-fluoro-2-hydroxy-5-((4-(piperidin-1-yl)phenyl)ethynyl)benzaldehyde]
 |  | 1.9 | 1.1 | O=Cc1c(O)cc(C#Cc2ccc(N3CCCCC3)cc2)cc1F [Compound B5, 2-fluoro-6-hydroxy-4-((4-(piperidin-1-yl)phenyl)ethynyl)benzaldehyde]
 |  | 3.8 | 1.8 | O=Cc1c(O)cc(C#Cc2ccc(N3CCOCC3)cc2)cc1F [Compound B6, 2-fluoro-6-hydroxy-4-((4-morpholinophenyl)ethynyl)benzaldehyde]
 |  | 2.9 | 1.6 | COc1cc(C#Cc2ccc(N3CCOCC3)cc2)cc(C=O)c1O [Compound B8, 2-hydroxy-3-methoxy-5-((4-morpholinophenyl)ethynyl)benzaldehyde]
 |  | 8.1 | 6.8 | O=Cc1cc(NC(=O)c2ccccc2)cc(F)c1O [Compound B9, N-(3-fluoro-5-formyl-4-hydroxyphenyl)benzamide]
 |  | 11.6 | 7.2 | O=Cc1cc(NC(=O)Nc2ccccc2)cc(F)c1O [Compound B10, 1-(3-fluoro-5-formyl-4-hydroxyphenyl)-3-phenylurea]
 |  | 1.9 | 1.9 | O=Cc1cc(C(=O)Nc2ccc(C(F)(F)F)cc2)cc(F)c1O [Compound B13, 3-fluoro-5-formyl-4-hydroxy-N-(4-(trifluoromethyl)phenyl)benzamide]
 |  | 32.7 | 19.8 | O=Cc1cc(C(=O)Nc2cnc(N3CCCC3)nc2)cc(F)c1O [Compound B59, 3-fluoro-5-formyl-4-hydroxy-N-(2-(pyrrolidin-1-yl)pyrimidin-5-yl)benzamide]
 |  | 16.4 | 9.3 | O=Cc1cc(C(=O)Nc2ccc(N3CCCC3)nc2)cc(F)c1O [Compound B61, 3-fluoro-5-formyl-4-hydroxy-N-(6-(pyrrolidin-1-yl)pyridin-3-yl)benzamide]
 |  | 30.1 | 11.3 | Cn1cc(-c2ccc(NC(=O)c3cc(F)c(O)c(C=O)c3)cc2)cn1 [Compound B63, 3-fluoro-5-formyl-4-hydroxy-N-(4-(1-methyl-1H-pyrazol-4-yl)phenyl)benzamide]
 |  | 10.9 | 8 | O=Cc1cc(NC(=O)Nc2ccc(F)cc2)cc(F)c1O [Compound B64, 1-(3-fluoro-5-formyl-4-hydroxyphenyl)-3-(4-fluorophenyl)urea]
 |  | 1.8 | 1 | O=Cc1cc(C(=O)Nc2ccc(N3CCCCC3)cc2)cc(F)c1O [Compound B66, 3-fluoro-5-formyl-4-hydroxy-N-(4-(piperidin-1-yl)phenyl)benzamide]
 |  | 7.6 | 2.3 | O=Cc1cc(C(=O)Nc2ccc(N3CCN(C4CC4)CC3)cc2)cc(F)c1O [Compound B69, N-(4-(4-cyclopropylpiperazin-1-yl)phenyl)-3-fluoro-5-formyl-4-hydroxybenzamide]
